Results from patent US20230020329A1, “Annelated 9-hydroxy-1,8-dioxo-1,3,4,8-tetrahydro-2H-pyrido[1,2-a]pyrazine-7-carboxamides as HIV integrase inhibitors, methods of preparation and application thereof” (priority 2019, published 2023).
In brackets after ≈: the same amount, converted by molar mass. Read-outs that look alike come from different tables or passages of the source.

Assays:
[1] = Thermodynamic (shake-flask) solubility; format: physicochemical; conditions: for solubility at 24 h: thermodynamic from solid
Procedure: The test compound of general formula 1 or 2 (2 mg) was weighed into a glass vial. The pION universal buffer (0.5 ml) with pH 7.4 or deionized water was added to appropriate vials. The vials were tightly closed with a lid, placed on a rotating shaker, and incubated for 24 hours to balance the solution and the solid phase at the saturation point. Each resulting solution (200 μl) was taken (in duplicate) from the vials, placed in a 96-well MultiScreen Solubility Filter Plate (Millipore), and filtered using vacuum ([…]) into a polypropylene plate with a U-shaped bottom. If necessary, the filtrates were diluted with an appropriate buffer (water). Then, 120 μl of the filtarate (or a diluted filtrate) was transferred to a 96-well plate with a UV-transparent bottom and 60 μl/well of acetonitrile and 20 μl/well of DMSO were added and thoroughly mixed with a multichannel pipette (acetonitrile and DMSO were added to obtain a required composition of calibration standards, as described below). The optical density of the resulting solutions was measured on a multifunction Infinite 200 PRO plate reader in the wavelength range from 240 nm to 400 nm in steps of 10 nm. The value of ODλ for solutions was assessed at a wavelength chosen for plotting a calibration curve.
The concentration of a substance in the solution after the solubility test was evaluated using a calibration curve. A stock solution in DMSO with a concentration of 2 mg/ml was prepared from a separate sample. […] The range of final concentrations of the calibration curve was 0.2; 0.1; 0.05; 0.025; 0.0125; 0.00625, and 0 mg/ml. Calibration solutions were prepared in a 96-well UV plate as follows: 20 μl of a 10-fold stock solution in DMSO, 60 μl of acetonitrile, and 120 μl of the appropriate buffer were added to the well and stirred. The optical density of the resulting solutions was measured on a multifunction Infinite 200 PRO plate reader in the wavelength range from 240 nm to 400 nm with a step of 10 nm. The optimal wavelength typically corresponding to the absorption maximum was chosen, and a linear dependence of OD at a given wavelength on the concentration of the compound was obtained.
The concentration of the compound in the filtrate after the solubility test was calculated according to the formula:
shake-flask solubility=(ODλfiltrate−ODλblank)/(slope×1.67×filtrate dilution)
wherein slope means the slope of the calibration curve; 1.67 is the filtrate acetonitrile+DMSO dilution ratio; filtrate dilution is an additional dilution of the filtrate, if applicable.

[2] = Pharmacokinetics in rat plasma, IV and oral; format: in vivo, male Sprague-Dawley rats
Procedure: The research was carried out on male Sprague-Dawley rats obtained from Charles River Laboratories (Germany). […] The age of the animals at the time of administration was 8-10 weeks. The animals were pre-catheterized so that all blood samples during the study of each substance could be taken from the same animals. Each substance was tested in 3 animals at each route of administration. The solution of test substances with a concentration of 0.2 mg/ml in 10% DMSO/10% Solutol/80% 0.05M N-methylglucamine was administered to rats intravenously in the tail vein at a dose of 1 mg/kg. Blood samples were collected at 5, 15, 30 min, 1, 2, 4, 8, and 24 hours after administration. Intragastric administration involved gavage using a solution with a concentration of 0.5 mg/ml in 0.5% methylcellulose at a dose of 5 mg/kg. Blood samples were collected at 15, 30 min, 1, 2, 4, 8, and 24 hours after administration. Blood (0.2 ml) was collected in polypropylene tubes containing 20 μl of 5% NaEDTA. Blood plasma was separated by centrifugation at 1500×g for 10 min and stored until testing at a temperature of −80° C. A pure acetonitrile-water (1:1) mixture (5 μl) was added to 45 μl of test samples. The samples were vortexed thoroughly for 10 seconds. Tolbutamide (100 μl) chilled to +4° C. (200 ng/ml in MeCN) was added to the samples and the mixture was vortexed. The samples were precipitated on ice at +4° C. for 15 minutes and then centrifuged at 2700 g for 10 min at +4° C. Supernatants (100 μl each) were transferred to a blank plate for HPLC/MS/MS analysis. The HPLC/MS/MS analysis was performed using an Agilent 1290 Infinity system coupled to an AB Sciex QTrap 6500 mass spectrometer. Pharmacokinetic analysis of plasma concentration vs time data was performed by a model-independent method using the Phoenix™ WinNonlin® 6.3 software (Pharsight Corp.). […]

[3] = aqueous buffer, pION universal buffer pH 7.4, 24 h, read-out: Solubility, pH 7.4, value

C[C@H]1CO[C@@H]2Cn3cc(C(=O)NCc4ccc(F)nc4F)c(=O)c(O)c3C(=O)N12 [Compound 1.1.19, (3S,11aR)-6-hydroxy-N-[(2,6-difluoropyridin-3-yl)methyl]-3-methyl-5,7-dioxo-2,3,5,7,11,11a-hexahydro[1,3]oxazolo[3,2-a]pyrido[1,2-d]pyrazine-8-carboxamide]
solubility at 24 h [1, 3]: 232 µg/mL (≈ 571 µM)
Solubility, water, value ([1]; deionized water, 24 h): 269 µg/mL (≈ 662 µM)
solubility at 24 h ([1]; deionized water, water, read-out: Solubility in water): 269 µg/mL (≈ 662 µM)
concentration at 8 h ([2]; male, Sprague-Dawley, rat plasma, oral 5 mg/kg, 8 h, read-out: C8 h): 7910 ng/mL
concentration at 24 h ([2]; male, Sprague-Dawley, rat plasma, oral 5 mg/kg, 24 h, read-out: C24 h): 4440 ng/mL
AUCINF ([2]; rat plasma, IV 1 mg/kg): 367.627 µg·h/mL
AUClast ([2]; rat plasma, IV 1 mg/kg): 202.189 µg·h/mL
Cmax ([2]; rat plasma, IV 1 mg/kg): 18550 ng/mL
MRTlast ([2]; rat plasma, IV 1 mg/kg): 9.46 h
T1/2 ([2]; rat plasma, IV 1 mg/kg): 21.2 h
Tmax ([2]; rat plasma, IV 1 mg/kg): 0.08 h
kel ([2]; rat plasma, IV 1 mg/kg): 0.03 h⁻¹
AUCINF ([2]; rat plasma, oral 5 mg/kg): 282.07 µg·h/mL
AUClast ([2]; rat plasma, oral 5 mg/kg): 176.506 µg·h/mL
Cmax ([2]; rat plasma, oral 5 mg/kg): 11488 ng/mL
MRTlast ([2]; rat plasma, oral 5 mg/kg): 9.42 h
T1/2 ([2]; rat plasma, oral 5 mg/kg): 16.5 h
Tmax ([2]; rat plasma, oral 5 mg/kg): 3 h
kel ([2]; rat plasma, oral 5 mg/kg): 0.04 h⁻¹
F (bioavailability) ([2]; rat, oral 5 mg/kg vs IV 1 mg/kg, F=(AUClast PO/5·AUClast IV)·100): 17.5%

C[C@H]1CO[C@@H]2Cn3cc(C(=O)NCc4ncc(F)cc4F)c(=O)c(O)c3C(=O)N12 [Compound 1.1.17, (3S,11aR)-6-hydroxy-N-[(3,5-difluoropyridin-2-yl)methyl]-3-methyl-5,7-dioxo-2,3,5,7,11,11a-hexahydro[1,3]oxazolo[3,2-a]pyrido[1,2-d]pyrazine-8-carboxamide]
solubility at 24 h [1, 3]: 196 µg/mL (≈ 482 µM)
solubility at 24 h ([1]; deionized water, 24 h, read-out: Solubility, water, value): 131 µg/mL (≈ 322 µM)
